Laboratory results as given in article PMC11876601 (Molecular Systems Biology, 2025).
“And” between values parts separate entries of the source, which are not always exact repeats. Equal entries are not always repeated. Where two headings read alike, the source gives them in different places.

Experiments:
PDO UME012 = test: PDO viability assay (CellTiter-Glo, 72 h); format: cell-based, human; set-up: Curve bottom: scale not given here;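 as to Curve top: fraction of plate-wise median vehicle signal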
Protocol: (§1) Primary patient-derived PDAC organoid (PDO) experiments were performed in the laboratories of Prof. Maximilian Reichert (University Hospital of the TU Munich, Germany, PDO set 1: B250, B535, B678) and Prof. Jens T. Siveke (University Hospital Essen, Germany; PDO set 2: UME008, UME012, UME051, UME053, UME060, UME061). PDOs were generated from surgical resection, EUS-guided fine needle biopsy (EUS-FNB), or ascites (Appendix Table S2). Surgical specimens were first minced with a sterile scalpel and subsequently washed with Anti-Anti solution and washing medium (PDO set 1), or vice versa (PDO set 2; Appendix Table S3). Biopsy samples were directly washed with an Anti-Anti solution and washing medium. Samples were digested using 1 ml of digestion medium at 37 °C while shaking, and the enzymatic reaction was stopped by adding 15 ml of washing medium (Appendix Table S3). If samples of PDO set 1 were blood-stained, tissue pellets were first incubated with ACK lysing buffer/red blood cells lysis buffer (Thermo Fisher Scientific) for 5 min and then digested using TrypLE (Thermo Fisher Scientific). The reversed procedure was applied for blood-stained samples of PDO set 2. For PDO generation from ascites, the material was first spun down at 500 × g for 5 min. Then, washing medium was added and the suspension was centrifuged at 300 × g for 5 min. If the pellet was blood-stained, ACK lysis buffer was added and incubated at room temperature.
(§2) For viability assays in PDOs, confluent organoids were removed from medium, and Matrigel was dissolved by adding 200 μl (PDO set 1) or 2 ml (PDO set 2) of Cell Recovery Solution (Corning), and additionally 500 μl of DPBS (PDO set 1 only). Samples were transferred into a falcon and incubated on ice for 30 min, followed by centrifugation at 300 × g at 4 °C for 5 min (after adding 10 ml washing medium for PDO set 2). Subsequently, TrypLE Express Enzyme (Thermo Fisher) was added to cell pellets and incubated for 2 × 5 min at 37 °C. The enzymatic reaction was quenched by DPBS (PDO set 1) or washing medium (PDO set 2), and samples were washed by centrifugation at 300 × g at 4 °C for 5 min. Five hundred cells/well were seeded in 384-well plates (Corning) in 50 μl of PDO medium containing 10% Matrigel. To allow PDO generation, cells were incubated for 4 days at 37 °C and 5% CO2. […] Experiments were pipetted manually (PDO set 1) or automatically using a TECAN D300e Digital Dispenser (HP; PDO set 2). Treatments were performed in eight replicates, except for PDO PPES045 (quadruplicates). After 72 h, cell viability was measured using the CellTiter-Glo Luminescent Cell Viability Assay (Promega) diluted 1:5 in the final volume of the well. After 20 min of incubation at room temperature under gentle shaking, the acquisition was performed in the microplate reader VantaSTAR (BMG Labtech) using 3000 gain for the amplification measurement of a detected signal (PDO set 1) or the Spark Multimode microplate reader (TECAN) at 800 ms integration time (PDO set 2).

PDO UME051 = test: PDO viability assay (CellTiter-Glo, 72 h); format: cell-based, human; set-up: Curve bottom: scale not given here;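 as to Curve top: fraction of plate-wise median vehicle signal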
Protocol: as §1, §2

TAOK3 = test system: TAOK3; set-up: method as in Reinecke et al. (2023); conditions: TAOK3, 5 cell line mix lysate, Kinobeads ε, ref Reinecke et al. (2023), cited from earlier work
MARK2 = conditions: MARK2, 5 cell line mix lysate, Kinobeads ε, ref Reinecke et al. (2023), cited from earlier work
INSR = target: INSR; set-up: method as in Reinecke et al. (2023); conditions: 5 cell line mix lysate, Kinobeads ε, ref Reinecke et al. (2023), cited from earlier work
SIK3 = test system: SIK3; set-up: method as in Klaeger et al. (2017); conditions: lysate 4 cell line mix (Colo205, K-562, MV-4-11, and SK-N-BE(2)), Kinobeads y, ref Klaeger et al. (2017); cited from earlier work
TGFBR1 = test system: TGFBR1; set-up: method as in Klaeger et al. (2017); conditions: lysate 4 cell line mix (Colo205, K-562, MV-4-11, and SK-N-BE(2)), Kinobeads y, ref Klaeger et al. (2017); cited from earlier work
MAP4K3 = test system: MAP4K3; set-up: method as in Klaeger et al. (2017); conditions: lysate 4 cell line mix (Colo205, K-562, MV-4-11, and SK-N-BE(2)), Kinobeads y, ref Klaeger et al. (2017); cited from earlier work
[1] = PDO UME012, GEM + Elimusertib (ATRi) dose1, per replicate
[2] = PDO UME012, GEM + Elimusertib (ATRi) dose2, per replicate
[3] = PDO UME012, GEM + Elimusertib (ATRi) dose3, per replicate
[4] = PDO UME012, GEM alone, per replicate
[5] = PDO UME051, GEM + Elimusertib (ATRi) dose1, per replicate
[6] = PDO UME051, GEM + Elimusertib (ATRi) dose2, per replicate
[7] = PDO UME051, GEM + Elimusertib (ATRi) dose3, per replicate
[8] = PDO UME051, GEM alone, per replicate

Nc1ccn([C@@H]2O[C@H](CO)[C@@H](O)C2(F)F)c(=O)n1 [GEM, Gemcitabine]
EC50 (PDO UME012; Homo sapiens, PDO UME012, GEM + Elimusertib (ATRi) dose1, mean of replicates, read-out: EC50 mean): 12.6 nM | EC50 (PDO UME012; Homo sapiens, PDO UME012, GEM + Elimusertib (ATRi) dose1, per replicate, read-out: EC50): 11.3 nM | EC50 (PDO UME012; Homo sapiens, PDO UME012, GEM + Elimusertib (ATRi) dose1, per replicate, read-out: pEC50 (converted)): 11.2 nM | EC50 (PDO UME012; Homo sapiens, PDO UME012, GEM + Elimusertib (ATRi) dose2, mean of replicates, read-out: EC50 mean): 3.06 nM | EC50 (PDO UME012; Homo sapiens, PDO UME012, GEM + Elimusertib (ATRi) dose2, per replicate, read-out: EC50): 3.37 nM | EC50 (PDO UME012; Homo sapiens, PDO UME012, GEM + Elimusertib (ATRi) dose2, per replicate, read-out: pEC50 (converted)): 3.39 nM | EC50 (PDO UME012; Homo sapiens, PDO UME012, GEM + Elimusertib (ATRi) dose3, mean of replicates, read-out: EC50 mean): 2.42 nM | EC50 (PDO UME012; Homo sapiens, PDO UME012, GEM alone, mean of replicates, read-out: EC50 mean): 29.1 nM | EC50 (PDO UME012; Homo sapiens, PDO UME012, GEM alone, read-out: EC50 mean): 29.1 nM | Curve bottom (PDO UME012; [1]): 11.29 and 15.69 and 14.76 and 8.69 | Curve slope (PDO UME012; [1]): 0.09 and 0.08 and 0.07 | Curve top (PDO UME012; [1]): 1.40 and 1.29 and 1.32 and 1.45 | pEC50 (PDO UME012; [1]): 7.80 and 7.83 and 8.06 | EC50 (PDO UME012; PDO UME012, GEM + Elimusertib (ATRi) dose1, per replicate, read-out: EC50): 15.7 nM and 14.8 nM and 8.69 nM | Curve bottom (PDO UME012; [2]): 3.37 and 3.54 and 2.28 | Curve slope (PDO UME012; [2]): 0.0214 and 0.0222 and 0.0167 | Curve top (PDO UME012; [2]): 1.13 and 1.28 and 1.51 | pEC50 (PDO UME012; [2]): 8.45 and 8.64 | EC50 (PDO UME012; PDO UME012, GEM + Elimusertib (ATRi) dose2, per replicate, read-out: EC50): 3.54 nM and 2.28 nM | Curve bottom (PDO UME012; [3]): 3.57 and 1.25 and 2.45 | Curve slope (PDO UME012; [3]): 0.02 and 0.05 and 0.0372 | Curve top (PDO UME012; [3]): 1.09 and 0.99 and 1.02 | pEC50 (PDO UME012; [3]): 8.45 and 8.90 and 8.61 | EC50 (PDO UME012; PDO UME012, GEM + Elimusertib (ATRi) dose3, per replicate, read-out: EC50): 3.57 nM and 1.25 nM and 2.45 nM | Curve slope (PDO UME012; [4]): 0.62 and 0.42 and 0.70 and 0.52 | Curve top (PDO UME012; [4]): 1.21 and 1.18 and 1.06 and 1.19 | pEC50 (PDO UME012; [4]): 8.15 and 7.29 and 7.52 and 7.56 | EC50 (PDO UME012; PDO UME012, GEM alone, per replicate, read-out: EC50): 7.11 nM and 51.3 nM and 30.5 nM and 27.6 nM | EC50 (PDO UME051; Homo sapiens, PDO UME051, GEM + Elimusertib (ATRi) dose1, mean of replicates, read-out: EC50 mean): 34.9 nM | EC50 (PDO UME051; Homo sapiens, PDO UME051, GEM + Elimusertib (ATRi) dose2, mean of replicates, read-out: EC50 mean): 15.3 nM | EC50 (PDO UME051; Homo sapiens, PDO UME051, GEM + Elimusertib (ATRi) dose3, mean of replicates, read-out: EC50 mean): 8.3 nM | EC50 (PDO UME051; Homo sapiens, PDO UME051, GEM alone, mean of replicates, read-out: EC50 mean): 33.8 nM | EC50 (PDO UME051; Homo sapiens, PDO UME051, GEM alone, read-out: EC50 mean): 33.8 nM | Curve bottom (PDO UME051; [5]): 61.54 and 16.58 and 29.10 and 61.40 and 25.59 and 36.68 and 21.39 and 27.20 | Curve slope (PDO UME051; [5]): 0.20 and 0.21 and 0.19 and 0.27 and 0.15 and 0.25 and 0.16 | Curve top (PDO UME051; [5]): 1.01 and 0.92 and 0.96 and 0.94 and 1.28 and 1.37 | pEC50 (PDO UME051; [5]): 7.21 and 7.78 and 7.54 and 7.59 and 7.44 and 7.67 and 7.57 | EC50 (PDO UME051; PDO UME051, GEM + Elimusertib (ATRi) dose1, per replicate, read-out: EC50): 61.5 nM and 16.6 nM and 29.1 nM and 61.4 nM and 25.6 nM and 36.7 nM and 21.4 nM and 27.2 nM | Curve bottom (PDO UME051; [6]): 15.70 and 19.38 and 5.56 and 12.34 and 19.98 and 22.85 and 24.50 and 1.89 | Curve slope (PDO UME051; [6]): 0.23 and 0.20 and 0.22 and 0.26 and 0.21 and 0.14 and 0.30 | Curve top (PDO UME051; [6]): 1.02 and 0.95 and 0.89 and 1.03 | Curve bottom (PDO UME051; [7]): 6.82 and 3.16 and 19.99 and 13.79 and 5.24 and 6.23 and 5.82 and 5.38 | Curve slope (PDO UME051; [7]): 0.26 and 0.20 and 0.24 and 0.23 and 0.30 and 0.15 and 0.16 | Curve top (PDO UME051; [7]): 0.75 and 0.88 and 1.32 and 1.31 and 0.95 and 0.93 | pEC50 (PDO UME051; [7]): 8.17 and 8.50 and 7.70 and 7.86 and 8.28 and 8.21 and 8.24 and 8.27 | EC50 (PDO UME051; PDO UME051, GEM + Elimusertib (ATRi) dose3, per replicate, read-out: EC50): 6.82 nM and 3.16 nM and 20 nM and 13.8 nM and 5.24 nM and 6.23 nM and 5.82 nM and 5.38 nM | Curve bottom (PDO UME051; [8]): 27.81 and 28.79 and 47.23 and 24.70 and 49.88 and 54.38 and 18.12 and 19.12 | Curve slope (PDO UME051; [8]): 0.26 and 0.29 and 0.22 and 0.35 and 0.23 and 0.21 and 0.27 and 0.19 | Curve top (PDO UME051; [8]): 1.27 and 0.99 and 0.93 and 0.97 | pEC50 (PDO UME051; [8]): 7.56 and 7.54 and 7.33 and 7.61 and 7.30 and 7.26 and 7.74 and 7.72 | EC50 (PDO UME051; PDO UME051, GEM alone, per replicate, read-out: EC50): 27.8 nM and 28.8 nM and 47.2 nM and 24.7 nM and 49.9 nM and 54.4 nM and 18.1 nM and 19.1 nM

COc1cc(N2CCC(N3CCN(C)CC3)CC2)ccc1Nc1ncc(Cl)c(Nc2ccccc2P(C)(C)=O)n1 [Brigatinib]
EC50 (TAOK3): 690 nM | pKDapp (TAOK3): 6.27 | Kd (TAOK3; read-out: KDapp): 534 nM | EC50 (MARK2): 247 nM | pKDapp (MARK2): 6.73 | Kd (MARK2; read-out: KDapp): 186 nM | Kd (INSR; read-out: KDapp): 1320 nM | EC50 (INSR): 1750 nM | pKDapp (INSR): 5.88

C[C@]12O[C@H](C[C@]1(O)CO)n1c3ccccc3c3c4c(c5c6ccccc6n2c5c31)CNC4=O [Lestaurtinib]
EC50 (SIK3): 1040 nM | EC50 (TGFBR1): […] | EC50 (MAP4K3): […]
